Laboratory results: ChEMBL document CHEMBL1125278, “Novel cerebroprotective agents with central nervous system stimulating activity. 2. Synthesis and pharmacology of the 1-(acylamino)-7-hydroxyindan derivatives” (1991)
Values joined by “and” are separate entries in the source; they are usually repeats but may differ in a detail not shown here. Identical values can stand only once.

Key:
Type in all cases: functional
[1] = system: Mus musculus; test: Time of recovery of righting reflux (RRT) in seconds was measured after intraperitoneal administration of 100 mg/kg in mice for the promotional effect on recovery from coma.
[2] = system: Mus musculus; test: Time of recovery of righting reflux (RRT) in seconds was measured after intraperitoneal administration of 10 mg/kg in mice for the promotional effect on recovery from coma.
[3] = system: Mus musculus; test: Time of recovery of righting reflux (RRT) in seconds was measured after intraperitoneal administration of 30 mg/kg in mice for the promotional effect on recovery from coma.
[4] = system: Mus musculus; test: Antihypoxic effect by the survival time (SVT) in mice at a dose of 100 mg/kg administered intraperitoneally.; conditions: route intraperitoneal
[5] = system: Mus musculus; test: Antihypoxic effect by the survival time (SVT) in mice at a dose of 100 mg/kg administered orally.
[6] = system: Mus musculus; test: Antihypoxic effect by the survival time (SVT) in mice at a dose of 10 mg/kg administered intraperitoneally.; conditions: route intraperitoneal
[7] = system: Mus musculus; test: Antihypoxic effect by the survival time (SVT) in mice at a dose of 30 mg/kg administered intraperitoneally.; conditions: route intraperitoneal
[8] = system: Mus musculus; test: Time of recovery of spontaneous movement (SMT) in seconds was measured after administration of 100 mg/kg orally in mice for the promotional effect on recovery from coma.; conditions: route oral
[9] = system: Mus musculus; test: Time of recovery of spontaneous movement (SMT) in seconds was measured after intraperitoneal administration of 30 mg/kg in mice for the promotional effect on recovery from coma.
[10] = system: Mus musculus; test: Time of recovery of righting reflux (RRT) in seconds was measured after administration of 100 mg/kg orally in mice for the promotional effect on recovery from coma.; conditions: route oral
[11] = system: Mus musculus; test: Spontaneous movement (SMT) in seconds, was measured after oral administration of 30 mg/kg in mice to test for promoting effects on recovery from coma.
[12] = system: Mus musculus; test: Time of recovery of righting reflux (RRT) in seconds was measured after oral administration of 30 mg/kg in mice for the promotional effect on recovery from coma.
[13] = system: Mus musculus; test: Antihypoxic effect by the survival time (SVT) in mice at a dose of 30 mg/kg administered orally.
[14] = system: Mus musculus; test: Antihypoxic effect by the ratio of survival time (SVT) of test mice to that of control group at a dose of 100 mg/kg administered intraperitoneally.; conditions: route intraperitoneal
[15] = system: Mus musculus; test: Time of recovery of spontaneous movement (SMT) in seconds was measured after administration of 10 mg/kg orally in mice for the promotional effect on recovery from coma.; conditions: route oral
[16] = system: Mus musculus; test: Time of recovery of righting reflux (RRT) in seconds was measured after oral administration of 100 mg/kg orally in mice for the promotional effect on recovery from coma.
[17] = system: Mus musculus; test: Time of recovery of righting reflux (RRT) in seconds was measured after oral administration of 10 mg/kg orally in mice for the promotional effect on recovery from coma.
[18] = system: Mus musculus; test: Time of recovery of righting reflux (RRT) in seconds was measured after oral administration of 30 mg/kg orally in mice for the promotional effect on recovery from coma.
[19] = system: Mus musculus; test: Antihypoxic effect by the survival time (SVT) in mice at a dose of 3 mg/kg administered intraperitoneally.; conditions: route intraperitoneal
[20] = system: Mus musculus; test: Antihypoxic effect by the ratio of survival time (SVT) of test mice to that of control group at a dose of 10 mg/kg administered intraperitoneally.; conditions: route intraperitoneal
[21] = system: Mus musculus; test: Antihypoxic effect tested by the ratio of survival time (SVT) of test mice to that of control group, dosed intraperitoneally at 30 mg/kg; conditions: route intraperitoneal, 30 mg/kg
[22] = system: Mus musculus; test: Antihypoxic effect tested by the ratio of survival time (SVT) of test mice to that of control group, dosed orally 30 mg/kg; conditions: route oral
[23] = system: Mus musculus; test: Compound was tested for the anesthetic effect and the sleeping time (ST) was recorded at a dose of 10 mg/kg administered intraperitoneally.; conditions: route intraperitoneal
[24] = system: Mus musculus; test: Compound was tested for the anesthetic effect and the sleeping time (ST) was recorded at a dose of 30 mg/kg administered intraperitoneally.; conditions: route intraperitoneal
[25] = system: Mus musculus; test: Compound was tested for the anesthetic effect and the sleeping time (ST) was recorded at a dose of 3 mg/kg administered intraperitoneally.; conditions: route intraperitoneal

For `Cc1cc(C(C)(C)C)c(O)c(C(C)(C)C)c1` [BUTYLATED HYDROXYTOLUENE], the RRT [1] was 98.7 s, the RRT [2] was 96.4 s and the RRT [3] was 74.5 s. The SVT [4] was 358.8% and 583.9%, the SVT [5] was 87.6% and the SVT [6] was 140.3%. The SVT [7] was 109.4%, the SMT [8] was 80.9 s and the SMT [9] was 110.4 s and 114.7 s and 115.7 s. The RRT [10] was 69.6 s.
For `Cc1cc(C)c2c(c1O)C(NC(=O)CN1CCN(c3cccc(Cl)c3)CC1)CC2` (stereo not drawn), the SMT [11] was 77.4 s, the RRT [12] was 72.1 s and the SVT [13] was 99.2%. It also gave an SVT [14] of 168.9%.
With `Cc1cc(C)c2c(c1O)C(NC(=O)CN1CCN(C)CC1)C(C)(C)C2` (stereo not drawn) the SMT [15] was 60.9 s, the SMT ([11]; 30 mg/kg) was 43.1 s and 49.8 s and the RRT [12] was 54.9 s. It also gave an RRT [16] of 25.8 s, an RRT [17] of 61.2 s and an RRT [18] of 45.7 s. For the same compound, the SMT [8] was 36.2 s, the SVT [19] was 93% and the SVT [20] was 92.5%. The SVT [21] was 145.6% and 145.2%, the SVT [22] was 86.4% and the ST [23] was 78.8 s. The ST [24] was 84.3 s and the ST [25] was 92.7 s.
